# Columns and labels:
# [1] = tested on: human gut bacterial isolates; assay: In vitro bacterial growth studies (MIC, growth curves) on a panel of 45 isolates; type: cell-based
# Source text: 42/45 of the tested isolates are commonly found in the human gut microbiota, with the exceptions of Bacteroides acidifaciens (found in mice), Delftia acidovorans (found in soil), and Bacillus subtilis 168 (found in soil). Each of these strains was obtained from the Deutsche Sammlung von Mikroorganismen and Zellkulturen (DSMZ) culture collection. A single colony of each isolate was subcultured in Bacto Brain Heart Infusion (BD Biosciences, 37 g/L) supplemented with L-cysteine-HCl (0.05%, w/v), menadione (1 μg/mL), and hemin (5 μg/mL) (referred to hereafter as BHI+) for 48 hours in an anaerobic chamber (Coy Laboratory Products) at 37° C. with an atmosphere composed of 2-3% H2, 20% CO2, and the balance N2. This subculture was diluted down to an OD600 of 0.08-0.1, which was then further diluted 100-fold, and then used to inoculate a microtiter plate with 2-fold serial dilutions of MTX concentrations ranging from 0-900 μg/ml. Plates were incubated at 37° C. with shaking in an Eon Microplate Spectrophotometer (BioTek Instruments, Inc) over a 48 to 72-hour period in the anaerobic chamber. Growth was monitored every 15 minutes at OD600 and corrected for background (no growth control). Data were exported using the Gen5 (v 2.0) software. […] As with any in vitro system, the growth of cells may be dependent on the growth medium used, and for these studies, a rich medium (BHI+) was used.
# Growth parameters (carrying capacity, time to mid-exponential and growth rate) were calculated in R using GrowthCurveR (Sprouffske, K., and Wagner, A. (2016), BMC Bioinformatics 17, 1726) (v0.2.1). Curves that could not be fit by the software (i.e., generated a warning/error message) were excluded from further analysis. […] Determination of dose-dependency was done by fitting a linear regression with methotrexate concentration as the independent variable and the estimated growth parameter as the dependent variable using lm from the stats package (v3.5.1). For rescue studies, as above, growth parameters (carrying capacity, time to mid-exponential, growth rate, and area under the curve) were calculated in R using GrowthCurveR (Sprouffske and Wagner, 2016) (v0.2.1). Four isolates were evaluated with varying sensitivity to MTX (B. thetaiotaomicron, B. vulgatus, C. innocuum and C. symbiosum). C. asparagiforme was excluded because rescue of growth would be difficult to identify in this MTX resistant strain (FIG. 2D). Growth curves at 9 concentrations of MTX tested against 7 concentrations of folic acid were measured. Determination of dose-dependency at each tested concentration of MTX was done by fitting a linear regression with folic acid or leucovorin concentration as the independent variable and the estimated growth parameter as the dependent variable using lm from the stats package (v3.5.1). […] A p-value cutoff of p<0.05 was used to identify effects that were dose-dependent based on the linear regression.
# [2] = tested on: Clostridium sporogenes; assay: RNA-seq after MTX treatment; type: cell-based; conditions: MTX 100 μg/ml, 30 minutes; padj<0.2, DESeq
# Description: Genomes were obtained from NCBI's GenBank Assembly database. Culture media was composed of BHI+and allowed to equilibrate in an anaerobic environment prior to use. Briefly, bacteria were cultured in BHI+at 37° C. in an anaerobic chamber. Cultures for each isolate were grown to mid-exponential (achieving an OD600˜0.5), aliquoted into triplicates, treated for 30 minutes with either DMSO or MTX 100 μg/ml, and then removed from the anaerobic chamber. […]
# Total RNA was subjected to rRNA depletion using Ribo-Zero Bacterial rRNA Depletion (Illumina, catalog #: MRZB12424), following the manufacturer's protocol. […] For each sample, fastq files are available in NCBI's Sequence Read Archive (SRA), accession number PRJNA656577.
# Reads were trimmed using Trimmomatic (v0.32) (Bolger, A. M., et al., (2014), Bioinformatics 30, 2114-2120), and ribosomal reads were removed using SortMeRNA (v2.1) (Kopylova, E., et al., (2012), Bioinformatics 28, 3211-3217). Reads were mapped to reference genomes using Bowtie2 (Langmead, B., and Salzberg, S. L. (2012), Nat Methods 9, 357-359) using the following options: -q, —met file, —end-to-end, —sensitive. […]
compound,measurement,setting,value
"CN(Cc1cnc2nc(N)nc(N)c2n1)c1ccc(C(=O)N[C@@H](CCC(=O)O)C(=O)O)cc1 [MTX, methotrexate]",percentage of tested isolates inhibited at the estimated concentration in the proximal GI tract,"[1]; 22-220 μM or 10-100 μg/ml MTX, 5-15 of 45 isolates",11-33%
same,Minimal inhibitory concentration (MIC),"[1]; 45 isolates, MTX 1.7-900 μg/ml, 2-2,000 μM, 48 hours, BHI+, anaerobic",ranged across the full gradient
same,number of isolates resistant to the maximum concentration tested,"[1]; 45 isolates, maximum 900 μg/ml, 48 hours",11
same,sensitivity of Bacteroidetes relative to the other phyla,[1]; MICs of isolates spanning 4 major phyla (FIG. 2B),tended to be sensitive
same,isolates with full growth inhibition or alterations in growth curve parameters,"[1]; MTX concentrations predicted to be found in the human gut, 36/45 isolates",80%
same,percentage of tested isolates with at least one growth parameter affected in a dose-dependent manner,"[1]; sub-MIC concentrations, subset of strains with growth curves",78%
same,number of differentially expressed genes,[2],21 genes
